Data published in PubChem BioAssay AID192 (DTP/NCI, 2004).
Toxic doses and inconclusive results are not listed.

Test system: BDF1 mice, B16 melanoma ip, median survival T/C
Test: NCI In Vivo Anticancer Drug Screen. Data for tumor model B16 Melanoma (intraperitoneal) in B6D2F1 (BDF1) mice
Settings: endpoint: median survival time, higher = longer survival
Procedure, shortened: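 Vehicle-treated animals serve as the reference (C); treated animals (T) are scored for survival or tumor size after tumor transplantation.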

[1] = dose: 100.0 mg/kg/injection, schedule: Q01DX009 (ip), vehicle: saline with Tween-80
[2] = dose: 200.0 mg/kg/injection, schedule: Q01DX009 (ip), vehicle: saline with Tween-80
[3] = dose: 400.0 mg/kg/injection, schedule: Q01DX009 (ip), vehicle: saline with Tween-80
[4] = dose: 0.15 mg/kg/injection, schedule: Q01DX009 (ip), vehicle: saline

## O=C(Nc1cccc(Cl)c1)OCC(Cl)(Cl)Cl
dose: 75.0 mg/kg/injection, schedule: Q01DX009 (ip), vehicle: Klucel (hydroxypropylcellulose) (HPC)
  T/C: 109 % of control
dose: 150.0 mg/kg/injection, schedule: Q01DX009 (ip), vehicle: Klucel (hydroxypropylcellulose) (HPC)
  T/C: 103 % of control
dose: 300.0 mg/kg/injection, schedule: Q01DX009 (ip), vehicle: Klucel (hydroxypropylcellulose) (HPC)
  T/C: 103 % of control

## CC#CCOCC(O)CO (stereo not given)
dose: 12.5 mg/kg/injection, schedule: Q01DX009 (ip), vehicle: water
  T/C: 105 % of control
dose: 25.0 mg/kg/injection, schedule: Q01DX009 (ip), vehicle: water
  T/C: 93 % of control
dose: 50.0 mg/kg/injection, schedule: Q01DX009 (ip), vehicle: water
  T/C: 113 % of control
dose: 100.0 mg/kg/injection, schedule: Q01DX009 (ip), vehicle: water
  T/C: 114 % of control

## CCCCCCCCCCCC(O)CCCC (stereo not given)
dose: 6.25 mg/kg/injection, schedule: Q01DX009 (ip), vehicle: Klucel (hydroxypropylcellulose) (HPC)
  T/C: 99 % of control
dose: 12.5 mg/kg/injection, schedule: Q01DX009 (ip), vehicle: Klucel (hydroxypropylcellulose) (HPC)
  T/C: 104 % of control

## CCN(C(=O)Nc1ccc(Cl)cc1)c1ccccc1
[1]
  T/C: 94 % of control
[2]
  T/C: 97 % of control
[3]
  T/C: 92 % of control

## O=c1oc2ccccc2c(O)c1C(c1ccc(C(c2c(O)c3ccccc3oc2=O)c2c(O)c3ccccc3oc2=O)cc1)c1c(O)c2ccccc2oc1=O
dose: 50.0 mg/kg/injection, schedule: Q01DX009 (ip), vehicle: Klucel (hydroxypropylcellulose) (HPC)
  T/C: 103 % of control
dose: 100.0 mg/kg/injection, schedule: Q01DX009 (ip), vehicle: Klucel (hydroxypropylcellulose) (HPC)
  T/C: 100 % of control
dose: 200.0 mg/kg/injection, schedule: Q01DX009 (ip), vehicle: Klucel (hydroxypropylcellulose) (HPC)
  T/C: 93 % of control

## CCC[N+](CCC)=c1ccc2nc3c(C)cc(N(CC)CC)cc3sc-2c1
[4]
  T/C: 102 % of control
dose: 0.3 mg/kg/injection, schedule: Q01DX009 (ip), vehicle: saline
  T/C: 102 % of control
dose: 0.6 mg/kg/injection, schedule: Q01DX009 (ip), vehicle: saline with Tween-80
  T/C: 92 % of control
dose: 0.6 mg/kg/injection, schedule: Q01DX009 (ip), vehicle: saline
  T/C: 102 % of control
dose: 1.2 mg/kg/injection, schedule: Q01DX009 (ip), vehicle: saline
  T/C: 105 % of control

## CC(C)(C#N)N1CCCCC1
dose: 0.03 mg/kg/injection, schedule: Q01DX009 (ip), vehicle: saline
  T/C: 97 % of control
dose: 0.07 mg/kg/injection, schedule: Q01DX009 (ip), vehicle: saline
  T/C: 104 % of control
[4]
  T/C: 98 % of control
dose: 2.5 mg/kg/injection, schedule: Q01DX009 (ip), vehicle: saline
  T/C: 102 % of control

## CCOC(=O)CC(C)(N)NC(N)=O (stereo not given)
[1]
  T/C: 92 % of control
[2]
  T/C: 95 % of control
[3]
  T/C: 90 % of control

## O=NN(CCCl)C(=O)NC1CCC(=O)NC1=O (stereo not given)
dose: 0.09 mg/kg/injection, schedule: Q01DX009 (ip), vehicle: saline
  T/C: 114 % of control
dose: 0.18 mg/kg/injection, schedule: Q01DX009 (ip), vehicle: saline
  T/C: 111 % of control
dose: 0.35 mg/kg/injection, schedule: Q01DX009 (ip), vehicle: saline
  T/C: 118 % of control
dose: 0.7 mg/kg/injection, schedule: Q01DX009 (ip), vehicle: saline
  T/C: 114 % of control
dose: 1.0 mg/kg/injection, schedule: Q01DX009 (ip), vehicle: saline with Tween-80
  T/C: 119 % of control
dose: 1.1 mg/kg/injection, schedule: Q01DX009 (ip), vehicle: saline
  T/C: 152 % of control
dose: 1.6 mg/kg/injection, schedule: Q01DX009 (ip), vehicle: saline
  T/C: 165 % of control
dose: 2.0 mg/kg/injection, schedule: Q01DX009 (ip), vehicle: saline with Tween-80
  T/C: 161 % of control
dose: 4.0 mg/kg/injection, schedule: Q01DX009 (ip), vehicle: saline with Tween-80
  T/C: 193 % of control
dose: 7.5 mg/kg/injection, schedule: Q01DX001 (ip), vehicle: saline + alcohol
  T/C: 166 % of control
dose: 8.0 mg/kg/injection, schedule: Q01DX009 (ip), vehicle: saline with Tween-80
  T/C: 123 % of control
dose: 15.0 mg/kg/injection, schedule: Q01DX001 (ip), vehicle: saline + alcohol
  T/C: 245 % of control
dose: 16.0 mg/kg/injection, schedule: Q01DX009 (ip), vehicle: saline with Tween-80
  T/C: 93 % of control

## O=C(NCCO)Nc1ccc(Cl)c(Cl)c1
dose: 90.0 mg/kg/injection, schedule: Q01DX009 (ip), vehicle: other
  T/C: 102 % of control
dose: 100.0 mg/kg/injection, schedule: Q01DX009 (ip), vehicle: other
  T/C: 100 % of control
dose: 200.0 mg/kg/injection, schedule: Q01DX009 (ip), vehicle: other
  T/C: 94 % of control
dose: 300.0 mg/kg/injection, schedule: Q01DX009 (ip), vehicle: other
  T/C: 87 % of control
dose: 400.0 mg/kg/injection, schedule: Q01DX009 (ip), vehicle: other
  T/C: 90 % of control
